Columns and labels:
chicken HTR1E [1] = molecular target: T1, chicken HTR1E (Gallus gallus, UniProt E1BS44); assay: pGL4-SRE-luciferase reporter assay, MAPK/ERK signaling; assay type: cell-based
Description: (§1) According to our previously established methods, chicken HTR1B or HTR1E or HTR1F was transiently expressed in human embryonic kidney 293 (HEK293) cells and treated by 5-HT (10^−11 to 10^−7 M) or HTR1 agonists (CP94253, BRL54443 or LY344864, 10^−11 to 10^−5 M) for six hours. The receptor-activated signaling pathways were then examined by pGL3-CRE-luciferase (capable of monitoring cAMP/PKA signaling pathways) and pGL4-SRE-luciferase reporter systems (capable of monitoring MAPK/ERK signaling pathways). Luminescence was measured by a multimode microplate reader (TriStar LB941, EG&G Berthold, Bad Wildbad, Germany) according to the manufacturer’s instruction.
(§2) HEK293 cells were transiently co-transfected with HTR1 expression plasmid and pGL3-CRE/pGL4-SRE luciferase reporter construct, and subjected to ligand treatment for 6 h before measurement. Effects of 5-HT (A), CP94253 (B), BRL54443 (C), and LY344864 (D) (10^−11–10^−7 M, 6 h) on forskolin (2 μM)-stimulated luciferase activity of HEK293 cells expressing chicken HTR1B, HTR1E, and HTR1F, monitored by a pGL3-CRE luciferase reporter system. Effects of 5-HT (E), CP94253 (F), BRL54443 (G), and LY344864 (H) (10^−11–10^−5 M, 6 h) on luciferase activity of HEK293 cells expressing chicken HTR1B, HTR1E, and HTR1F, monitored by a pGL4-SRE luciferase reporter system. HEK293 cells co-transfected with empty pcDNA3.1(+) and luciferase reporter construct were used as a control. Each data point represents the mean ± SEM of 3 replicates.

[2] = tested on: cultured chicken pituitary cells; assay: VIP- or forskolin-stimulated PRL secretion, Western blot; assay type: cell-based; conditions: 6 h; for effect on VIP-stimulated PRL secretion: VIP 5 nM; for effect on forskolin-stimulated PRL secretion: forskolin 2 μM
Method: As described in the previous experiment, anterior pituitaries were collected from 3-week-old male or female chicks; then, digested by 0.25% trypsin at 37 °C for 30 min. The dispersed pituitary cells were then cultured at a density of 5 × 10^5 cells/well on Corning® CellBIND® 48-well plates (Corning, Lowell, MA, USA) with culture medium 199 (M199, Gibco, Grand Island, NY, USA) containing 10% FBS (Gibco) at 37 °C with 5% CO2. After 18 h of culture, the culture medium was removed, and cells were treated with 120 μL M-199 containing various concentration of 5-HT (0.1 μM) or CP94253 (10 μM) or BRL54443 (10 μM) or LY344864 (10 μM) in the presence of VIP (5 nM) or forskolin (FK, 2 μM). After 6 h of treatment, the culture medium was collected for measurement of PRL secretion, and then pituitary cells were lysed with 1 × passive lysis buffer (Promega) and lysates were collected to examine intracellular PRL and β-actin levels. The protein samples were electrophoresed and transferred to the membrane, and then the standard procedures were used for protein detection. The PRL rabbit polyclonal antibody (1:500) against recombinant full-length chicken PRL were prepared in our laboratory and used to detect the PRL protein levels in our previous study.
Relative PRL levels were calculated as the ratio to the intracellular β-actin level and then expressed as a percentage of control or VIP or forskolin treatment groups. The relative mRNA level of each gene was first calculated as the ratio to that of β-actin and then expressed as fold change compared with the respective control. GraphPad Prism 7 (GraphPad Software Inc, San Diego, California, USA) was used for statistical analysis. Data were analyzed by the unpaired Student’s t-test (for two groups) or by one-way ANOVA, followed by the Dunnett’s test (for comparing treatment groups with control). Data are presented as mean ± SEM.
Figure 8 Western blot showing the effects of various selective agonists ((A): 5-HT; (B): CP94253; (C): BRL54443; (D): LY344864) on VIP (5 nM) or forskolin (FK, 2 μM)-stimulated cPRL secretion in cultured chicken pituitary cells. sPRL represents secretory PRL, and iPRL represents intracellular PRL. Protein levels were semi-quantified by densitometry, β-actin was used as an internal control. For the sPRL analysis, the 5 nM VIP or 2 μM FK treated group was regarded as 100%, while for the iPRL analysis, the control group (without any drug treatment) was regarded as 100%. Different letters indicate statistical difference between two groups (p ≤ 0.01), as determined by one-way ANOVA and a Tukey’s test. Each data point represents the mean ± SEM of three replicates (n = 3).

chicken HTR1E [3] = molecular target: T1, chicken HTR1E; assay: pGL3-CRE-luciferase reporter assay, inhibition of forskolin-stimulated cAMP/PKA signaling; assay type: cell-based
Description: as §1
(§3) Luciferase reporter assays were performed to determine the signaling properties of HTR1B, HTR1E, and HTR1F using different ligands, including 5-HT (natural ligand), CP94253 (a selective HTR1B agonist), BRL54443 (a selective HTR1E agonist) and LY344864 (a selective HTR1F agonist) respectively. […] Using a pGL3-CRE-luciferase reporter system, the receptor-mediated inhibition of the cAMP/PKA signaling pathway was subsequently monitored as in our previous studies.
as §2

chicken HTR1B [4] = molecular target: T2, chicken HTR1B (Gallus gallus, UniProt D3Y1H8); assay: pGL4-SRE-luciferase reporter assay, MAPK/ERK signaling; assay type: cell-based; conditions: HEK293 cells expressing chicken HTR1B, stimulation of luciferase activity, 6 h, table values marked a roughly estimated, read-out: EC50, MAPK/ERK signaling pathway, HTR1B
Description: as §1, §2

chicken HTR1B [5] = molecular target: T2, chicken HTR1B; assay: pGL3-CRE-luciferase reporter assay, inhibition of forskolin-stimulated cAMP/PKA signaling; assay type: cell-based; conditions: HEK293 cells expressing chicken HTR1B, inhibition of forskolin (2 μM)-stimulated luciferase activity, 6 h, read-out: EC50, cAMP/PKA signaling pathway, HTR1B
Description: as §1, §3, §2

[6] = molecular target: guinea pig HTR1E receptor; parameters: method as in PMID 14744596; conditions: read-out: EC50, stimulation of [35S]GTPγS; cited from earlier work
chicken HTR1F [7] = molecular target: T3, chicken HTR1F (Gallus gallus, UniProt A0A4P9IUX1); assay: pGL4-SRE-luciferase reporter assay, MAPK/ERK signaling; assay type: cell-based
Description: as §1, §2

HTR1B = tested on: HTR1B; parameters: method as in PMID 10936173; conditions: human HTR1B stimulated with 5-HT; read-out: EC50, ERK activation; cited from earlier work
chicken HTR1B [8] = molecular target: T2, chicken HTR1B; assay: Western blot of CREB and ERK1/2 phosphorylation in transfected HEK293 cells; assay type: cell-based; conditions: HEK293 cells expressing HTR1B, 10 min
Method: (§4) HEK293 cells transfected with HTR1B, HTR1E or HTR1F expression plasmid were cultured on a 24-well plate at 37 °C and then treated with 5-HT for 10 min. Then, cells were lysed with 1 × passive lysis buffer (Promega). The phosphorylated ERK1/2 (pERK1/2) and CREB (pCREB) levels in cell lysates were examined by Western blot, as described in our previous studies.
(§5) In addition, Western blots were performed to elucidate these signaling properties of chicken HTR1B, HTR1E, and HTR1F. […] These findings further supported the functional coupling of the three receptors to the cAMP/PKA and MAPK/ERK signaling cascade, in agreement with previous luciferase assay results.
(§6) Figure 5 Western blot showing 5-HT treatment (100 nM, 10min) can inhibit the forskolin (FK) (2 μM)-stimulated phosphorylation levels of CREB (p-CREB) in HEK293 cells expressing chicken HTR1B, HTR1E, and HTR1F (A), and 5-HT treatment (10 μM, 10 min) can enhance phosphorylation of ERK1/2 (p-ERK1/2) in HEK293 cells expressing chicken HTR1B, HTR1E, and HTR1F (B).

chicken HTR1F [9] = molecular target: T3, chicken HTR1F; assay: as above; assay type: cell-based; conditions: HEK293 cells expressing HTR1F, 10 min
Method: as §4, §5, §6

chicken HTR1E [10] = molecular target: T1, chicken HTR1E; assay: as above; assay type: cell-based; conditions: HEK293 cells expressing HTR1E, 10 min
Method: as §4, §5, §6

chicken HTR1F [11] = molecular target: T3, chicken HTR1F; assay: pGL3-CRE-luciferase reporter assay, inhibition of forskolin-stimulated cAMP/PKA signaling; assay type: cell-based
Description: as §1, §3, §2

human HTR1E receptor = molecular target: human HTR1E receptor; parameters: method as in PMID 14744596; conditions: read-out: EC50, stimulation of [35S]GTPγS; cited from earlier work
hens = tested on: hens; parameters: method as in doi:10.1016/0378-4320(78)90011-8; conditions: injection eight hours before the pre-ovulation period; cited from earlier work
HTR1F = tested on: HTR1F; parameters: method as in PMID 17715266; conditions: in mammals; cited from earlier work

T3 sequence (A0A4P9IUX1 entry or part of it): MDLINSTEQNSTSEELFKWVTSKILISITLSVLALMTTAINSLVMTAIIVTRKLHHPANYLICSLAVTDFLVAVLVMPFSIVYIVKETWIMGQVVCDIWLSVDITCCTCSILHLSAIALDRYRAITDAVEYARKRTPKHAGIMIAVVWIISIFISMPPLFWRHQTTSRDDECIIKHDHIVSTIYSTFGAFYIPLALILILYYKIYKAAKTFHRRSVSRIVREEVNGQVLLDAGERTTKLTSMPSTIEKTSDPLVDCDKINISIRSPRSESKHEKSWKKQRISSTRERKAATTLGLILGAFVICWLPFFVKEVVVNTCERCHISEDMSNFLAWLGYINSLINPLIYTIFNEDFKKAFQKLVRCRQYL
T2 sequence (D3Y1H8 1-379): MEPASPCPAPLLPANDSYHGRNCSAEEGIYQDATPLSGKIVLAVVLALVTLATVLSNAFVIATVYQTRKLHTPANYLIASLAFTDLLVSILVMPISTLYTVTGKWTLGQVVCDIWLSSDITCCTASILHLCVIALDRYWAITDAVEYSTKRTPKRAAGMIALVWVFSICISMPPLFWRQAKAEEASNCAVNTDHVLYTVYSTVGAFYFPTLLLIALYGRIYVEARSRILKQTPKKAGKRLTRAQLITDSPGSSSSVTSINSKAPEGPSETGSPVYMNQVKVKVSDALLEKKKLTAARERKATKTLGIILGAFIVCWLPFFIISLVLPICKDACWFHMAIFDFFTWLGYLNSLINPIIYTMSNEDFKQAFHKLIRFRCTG
T1 sequence (E1BS44 1-371): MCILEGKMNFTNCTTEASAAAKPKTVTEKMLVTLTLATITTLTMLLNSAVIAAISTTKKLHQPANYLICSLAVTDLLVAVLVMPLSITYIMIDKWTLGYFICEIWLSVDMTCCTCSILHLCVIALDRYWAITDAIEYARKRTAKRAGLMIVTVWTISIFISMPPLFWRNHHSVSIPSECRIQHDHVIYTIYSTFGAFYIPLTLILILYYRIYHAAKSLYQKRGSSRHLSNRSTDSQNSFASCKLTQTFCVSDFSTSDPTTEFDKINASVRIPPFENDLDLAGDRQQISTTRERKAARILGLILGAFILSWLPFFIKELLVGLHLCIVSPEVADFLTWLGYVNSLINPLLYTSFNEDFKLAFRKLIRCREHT

## CN1CCC(c2c[nH]c3ccc(O)cc23)CC1 [BRL54443, 3-(-1-methylpiperidin-4-yl)-1H-indol-5-ol]
Chicken HTR1E [1]
  EC50: 28.8 nM
[2]; 10 μM
  effect on VIP-stimulated PRL secretion: showed no significant effect on VIP-stimulated PRL secretion
  effect on forskolin-stimulated PRL secretion: showed no significant effect on PRL release
Chicken HTR1E [3]
  EC50: 2.4 nM

## CCCOc1ccc2[nH]cc(C3=CCNCC3)c2n1 [CP94253]
Chicken HTR1B [4]
  EC50: > 200 nM
[2]; 10 μM
  effect on VIP-stimulated PRL secretion: showed no significant effect on VIP-stimulated PRL secretion
  effect on forskolin-stimulated PRL secretion: showed no significant effect on PRL release
Chicken HTR1B [5]
  EC50: 4 nM

## NCCc1c[nH]c2ccc(O)cc12 [5-HT, 5-hydroxytryptamine]
[6]
  EC50: 13.6 ± 1.92 nM
Chicken HTR1B [4]
  EC50: > 800 nM
Chicken HTR1F [7]
  EC50: > 500 nM
Chicken HTR1E [1]
  EC50: > 100 nM
HTR1B
  EC50: […]
[2]; 0.1 μM
  effect on VIP-stimulated PRL secretion: showed no significant effect on VIP-stimulated PRL secretion
  effect on forskolin-stimulated PRL secretion: showed no significant effect on PRL release
Chicken HTR1B [8]; 100 nM, forskolin 2 μM
  effect on forskolin-stimulated CREB phosphorylation: could inhibit forskolin (2 μM)-stimulated CREB phosphorylation
Chicken HTR1B [8]; 10 μM
  effect on ERK1/2 phosphorylation: could enhance ERK1/2 (44/42 kDa) phosphorylation
Chicken HTR1F [9]; 100 nM, forskolin 2 μM
  effect on forskolin-stimulated CREB phosphorylation: could inhibit forskolin (2 μM)-stimulated CREB phosphorylation
Chicken HTR1F [9]; 10 μM
  effect on ERK1/2 phosphorylation: could enhance ERK1/2 (44/42 kDa) phosphorylation
Chicken HTR1E [10]; 100 nM, forskolin 2 μM
  effect on forskolin-stimulated CREB phosphorylation: could inhibit forskolin (2 μM)-stimulated CREB phosphorylation
Chicken HTR1E [10]; 10 μM
  effect on ERK1/2 phosphorylation: could enhance ERK1/2 (44/42 kDa) phosphorylation
Chicken HTR1B [5]
  EC50: 8 nM
Chicken HTR1F [11]
  EC50: 5.7 nM
Chicken HTR1E [3]
  EC50: 9.3 nM
Human HTR1E receptor
  EC50: […]
hens
  ovulation failure: 90 % of hens

## CN(C)[C@@H]1CCc2[nH]c3ccc(NC(=O)c4ccc(F)cc4)cc3c2C1 [LY344864]
Chicken HTR1F [7]; HEK293 cells expressing chicken HTR1F, pGL4-SRE-luciferase, stimulation of luciferase activity, 6 h, table values marked a roughly estimated, read-out: EC50, MAPK/ERK signaling pathway, HTR1F
  EC50: > 200 nM
[2]; 10 μM
  effect on VIP-stimulated PRL secretion: could significantly inhibit VIP-stimulated PRL secretion
  effect on forskolin-stimulated PRL secretion: could significantly inhibit PRL secretion
HTR1F
  affinity for HTR1F relative to HTR1A, HTR1B, HTR1D, and HTR1E: ~ 100 fold
  pKd for HTR1F: 8.2
Chicken HTR1F [11]; HEK293 cells expressing chicken HTR1F, pGL3-CRE-luciferase, inhibition of forskolin (2 μM)-stimulated luciferase activity, 6 h, read-out: EC50, cAMP/PKA signaling pathway, HTR1F
  EC50: 1.8 nM
